Laboratory results: patent US4454291A, “N-(2-Substituted-1-oxoalkyl)-2,3-dihydro-1H-indole-2-carboxylic acid derivatives” (American Home Products Corporation, priority 1982, dated 1984)
Where a name gives a salt, the structure may show the parent alone. Square brackets hold non-standard residues; d marks the D form. Ends that are not written are not given here. pGlu = O=C1CC[C@@H](C(=O)O)N1

Legend:
[1] = target: T1, angiotensin converting enzyme (Oryctolagus cuniculus, UniProt P12822); assay: In vitro assay for angiotensin converting enzyme inhibition utilizing rabbit lung extract (Cushman et al.), hippuryl-L-histidyl-L-leucine substrate; type: biochemical
T1 construct: utilizing the rabbit lung extract; from tissue; host or cells: rabbit lung extract
T1 sequence (P12822 34-1310): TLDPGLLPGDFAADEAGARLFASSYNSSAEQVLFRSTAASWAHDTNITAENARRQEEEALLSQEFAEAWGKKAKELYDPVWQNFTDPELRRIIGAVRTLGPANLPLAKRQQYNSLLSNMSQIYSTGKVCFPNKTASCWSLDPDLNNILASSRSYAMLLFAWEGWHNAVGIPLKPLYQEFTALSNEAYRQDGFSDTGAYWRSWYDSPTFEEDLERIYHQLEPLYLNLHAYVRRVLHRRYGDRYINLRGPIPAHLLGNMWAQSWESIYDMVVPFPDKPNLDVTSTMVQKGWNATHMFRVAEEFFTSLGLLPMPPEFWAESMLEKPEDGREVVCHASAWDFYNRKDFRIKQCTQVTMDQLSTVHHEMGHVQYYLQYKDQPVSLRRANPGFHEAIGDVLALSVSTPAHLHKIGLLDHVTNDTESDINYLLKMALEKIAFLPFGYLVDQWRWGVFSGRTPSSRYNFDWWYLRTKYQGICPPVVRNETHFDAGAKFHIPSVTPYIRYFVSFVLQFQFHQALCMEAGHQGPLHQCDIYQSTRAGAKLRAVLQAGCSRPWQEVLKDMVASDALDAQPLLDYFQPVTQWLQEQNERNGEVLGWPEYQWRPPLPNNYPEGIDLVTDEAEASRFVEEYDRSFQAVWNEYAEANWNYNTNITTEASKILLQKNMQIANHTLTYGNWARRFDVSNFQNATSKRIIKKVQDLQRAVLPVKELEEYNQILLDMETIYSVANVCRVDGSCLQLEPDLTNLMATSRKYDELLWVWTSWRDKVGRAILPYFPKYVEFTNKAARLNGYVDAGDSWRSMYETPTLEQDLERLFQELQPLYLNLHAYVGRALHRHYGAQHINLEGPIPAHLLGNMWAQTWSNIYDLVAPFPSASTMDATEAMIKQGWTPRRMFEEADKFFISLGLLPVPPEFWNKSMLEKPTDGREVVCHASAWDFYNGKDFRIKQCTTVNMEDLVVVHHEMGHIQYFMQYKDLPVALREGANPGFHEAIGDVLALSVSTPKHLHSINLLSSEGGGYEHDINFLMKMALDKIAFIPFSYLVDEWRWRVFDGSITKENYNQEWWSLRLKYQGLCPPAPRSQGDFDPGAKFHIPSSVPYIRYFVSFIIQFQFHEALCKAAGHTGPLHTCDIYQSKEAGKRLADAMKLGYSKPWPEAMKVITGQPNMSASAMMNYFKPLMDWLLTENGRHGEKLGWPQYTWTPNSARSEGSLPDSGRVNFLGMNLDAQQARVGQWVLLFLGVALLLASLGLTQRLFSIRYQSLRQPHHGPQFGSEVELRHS
Method: The angiotensin converting enzyme (ACE) inhibitory property of the compounds is measured in vitro and in vivo. The in vitro assay utilizes rabbit lung extract and a specific tripeptide substrate, hippuryl-L-histidyl-L-leucine being preferred, and follows the method of Cushman et al., Biochem. Pharmacol., 20, 1637-1648 (1971).
In the in vitro assay for angiotensin converting enzyme inhibition utilizing the rabbit lung extract according to the procedure of Cushman et al., Biochem. Pharmacol., 20, 1637-1648 (1971), the following results were obtained: […]

[2] = test system: angiotensin converting enzyme; conditions: cited from earlier work
hypertension [3] = conditions: humans with certain forms of hypertension; cited from earlier work
hypertension [4] = conditions: cited from earlier work
[5] = test system: vasopressor action of Angiotensin I; assay: In vivo ACE inhibitory activity in the conscious normotensive rat: angiotensin I vasopressor response (Rubin et al.); parameters: species or system rat (Sprague-Dawley, male; conditions: oral, 1 mg/kg, 2 hours after administration
Method: The in vivo ACE inhibitory activity of the compounds is measured according to the procedure described in Rubin et al., J. Pharmacol. Exp. Ther., 204, 271-280 (1978), which utilizes the conscious normotensive tat as a subject. In this procedure, the jugular vein and carotid artery cannulae are placed in an etheranesthetized, normotensive, male, Sprague-Dawley rat for injection or oral dosage of compounds and direct recording of systemic arterial pressure, respectively. The blood pressure responses to I. V. injections of angiotensin I (500 ng/kg.), angiotensin II (100 ng/kg.) and bradykinin (10 μg/kg.) are recorded and compared with identical doses administered at various time intervals after oral dosing of a prospective angiotensin converting enzyme inhibitor. An angiotensin converting enzyme inhibitor would not be expected necessarily to lower arterial pressure in the normotensive rat, but would be expected to block angiotensin I pressor responses without grossly altering angiotensin II responses. Additionally,the vasodepressor response to bradykinin would be expected to be augmented since angiotensin converting enzyme is known to inactivate bradykinin normally.

[6] = test system: spontaneously hypertensive rat; assay: Anti-hypertensive effect in the spontaneously hypertensive rat (systolic pressure, indirect caudal plethysmograph); type: in vivo, male); conditions: oral, 4 subjects
Method: The anti-hypertensive effect of the compounds of the invention is measured in the spontaneously hypertensive rat. In this procedure systolic pressure of male spontaneously hypertensive rats is measured by an indirect technique using the Decker Caudal Plethysmograph or other appropriate sensor. Groups usually consist of 4 or more rats. Drugs are usually administered orally. Pressures are usually read prior to drug administration and at 1.5, 4 and 24 hours thereafter. This schedule may be altered depending upon the behavior of the drug.
This procedure measures the hypotensive effect of the subject compounds in a hypertensive subject using a single dose and measuring the response over a 24 hour period. When administered orally according to this procedure, compounds of the invention produced a significant decrease in blood pressures in doses of 1-50 mg/kg. When used to treat hypertension in warm-blooded animals doses of less than 15 mg/kg./day would be utilized, and preferably doses of less than 5 mg/kg./day. Such effective treatment doses would generally be administered in long-term antihypertensive therapy.

Compound | IC50 [1] [nM] | potency as inhibitors of angiotensin converting enzyme [2] | oral activity as an anti-hypertensive agent (hypertension [4]) | other results
C[C@H](N)C(=O)N1c2ccccc2C[C@H]1C(=O)O [Example 54, (S)-1-[(S)-2-Amino-Oxopropyl]-2,3-Dihydro-1H-Indole-2-Carboxylic Acid] | 3100 | – | – | –
Pyr-Lys-Trp-Ala-Pro ([pGlu]KWAP) [BPP5a] | – | most potent | – | –
Pyr-Trp-Pro-Arg-Pro-Gln-Ile-Pro-Pro (WPRPQIPP; N-terminal pyroglutamate; printed: Trp-Pro-Arg-Pro-Gln-Ile-Pro-Pro) [BPP9a] | – | most potent | not orally active | anti-hypertensive effect in clinical studies (hypertension [3]): effective anti-hypertensive agent
CCOC(=O)[C@@H](CCc1ccccc1)N[C@@H](C)C(=O)N1c2ccccc2C[C@H]1C(=O)O [Example 56, (-)-(S)-1-[(2S)-2-[[(1R)-1-(Ethoxycarbonyl)-3-Phenylpropyl]Amino]-1-Oxopropyl]-2,3-Dihydro-1H-Indole-2-Carboxylic Acid, Maleate] | 900 | – | – | –
C[C@H](CS)C(=O)N1CCCC1C(=O)O (stereo in doubt) [D-3-mercapto-2methylpropanoyl-L-proline] | – | – | effective when administered orally | effectiveness among the proline derivatives (hypertension [4]; in vivo): most effective
CCOC(=O)[C@H](CCc1ccccc1)N[C@@H](C)C(=O)N1c2ccccc2C[C@H]1C(=O)O.O=C(O)/C=C\C(=O)O [Example 55, (-)-(S)-1-[(2S)-2-[[(1S)-1-(Ethoxycarbonyl)-3-Phenylpropyl]Amino]-1-Oxopropyl]-2,3-Dihydro-1H-Indole-2-Carboxylic Acid, Maleate] | 118 | – | – | inhibition of the vasopressor action of Angiotensin I [5]: 46%; Reduction of Systolic BP ([6]; 2.5 mg/kg): -13 mm. Hg.; Reduction of Systolic BP ([6]; 5.0 mg/kg): -23 mm. Hg.; Reduction of Systolic BP ([6]; 10.0 mg/kg): -33 mm. Hg.
